Assay results from PubChem BioAssay (NCI).
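A five-concentration, 48-hour dose response in 96-well plates underlies each endpoint, interpolated linearly between surrounding concentrations. GI50 is the concentration that inhibits growth by half. TGI marks complete inhibition of growth.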

Tests used:
Assay in all cases: DTP human tumour cell line panel, 48 h
OVCAR-8 ovarian = test system: OVCAR-8 ovarian
PC-3 prostate = test system: PC-3 prostate
MALME-3M melanoma = test system: MALME-3M melanoma
CAKI-1 renal = test system: CAKI-1 renal
UACC-257 melanoma = test system: UACC-257 melanoma
DU-145 prostate = test system: DU-145 prostate
OVCAR-5 ovarian = test system: OVCAR-5 ovarian
MOLT-4 leukemia = test system: MOLT-4 leukemia
UACC-62 melanoma = test system: UACC-62 melanoma
NCI-H23 lung = test system: NCI-H23 lung

Structure (SMILES) | TGI (OVCAR-8 ovarian) [µM] | TGI (PC-3 prostate) [µM] | TGI (MALME-3M melanoma) [µM] | TGI (CAKI-1 renal) [µM] | TGI (UACC-257 melanoma) [µM] | TGI (DU-145 prostate) [µM] | TGI (OVCAR-5 ovarian) [µM] | TGI (MOLT-4 leukemia) [µM] | TGI (UACC-62 melanoma) [µM] | TGI (NCI-H23 lung) [µM] | GI50 (OVCAR-8 ovarian) [µM] | GI50 (PC-3 prostate) [µM] | GI50 (MALME-3M melanoma) [µM] | GI50 (UACC-257 melanoma) [µM] | GI50 (DU-145 prostate) [µM] | GI50 (OVCAR-5 ovarian) [µM] | GI50 (MOLT-4 leukemia) [µM] | GI50 (UACC-62 melanoma) [µM] | GI50 (NCI-H23 lung) [µM] | GI50 (CAKI-1 renal) [µM]
Cc1cc(C)c2nc3c(c(C(O)C4CCCCN4)c2c1)CC/C3=C\c1ccc(Cl)cc1 (stereo not drawn) | > 100 | > 100 | > 100 | > 100 | > 100 | > 100 | > 100 | > 100 | > 100 | > 100 |  |  |  |  |  |  |  |  |  | 
COc1cc(C(=O)c2cnc(-c3c[nH]c4cccc(C)c34)[nH]2)cc(OC)c1OC | 43.2 | > 100 | > 100 | > 100 |  | > 100 | > 100 | > 100 | > 100 | > 100 | 0.0078 | 0.00537 | 11.4 | 0.332 | 0.00756 | 0.0746 | 0.0378 | 0.0044 | 0.0102 | 
O=C1CCC(c2ccccc2)=NN1c1nc2ccccc2s1 | > 100 | 69.2 | 95.6 | > 100 | > 80.2 | 64.6 | > 100 | > 94.4 | > 100 | > 84.6 |  |  |  |  |  |  |  |  |  | 
O=S(=O)(c1ccccc1)N1CCCC(c2ccccc2)CC1 (stereo not drawn) | > 100 | > 100 | > 100 | > 100 | > 100 | > 100 | > 100 | 69.1 | > 100 | > 100 |  |  |  |  |  |  |  |  |  | 
CCN(CC)c1ccc(/C=N/NC(=O)Cc2ccc(Nc3ccnc(C(F)(F)F)c3)cc2)c(O)c1 | > 100 | > 100 | > 26 | > 25 | > 29.2 | > 100 | > 100 | > 100 | 7.86 | > 100 | 0.757 | 1.85 | 1.18 | 1.82 | 0.828 | 2.42 | 0.37 | 0.48 | 1.34 | 0.413
Cn1cc(-c2cc(-c3cn(C)c4ccccc34)[nH]n2)c2ccccc21 | > 100 | > 100 | > 100 | > 100 | > 100 | > 100 | > 100 | 20.8 | > 100 | > 100 | 28.8 | 8.11 | 93.1 | 80.6 | 15.6 | > 100 | 4.75 | 16.4 | 22 | > 100
NC(=NCCCCCCN=C(N)/N=C(\N)Nc1ccc(Cl)cc1)/N=C(\N)Nc1ccc(Cl)cc1 | 7.19 | 6.38 | 3.28 | 4.79 | 7.93 | 6.52 | 6.32 | 2.84 | 4.32 | 3.59 | 1.67 | 1.74 | 1.1 | 2.01 | 1.93 | 1.83 | 1.09 | 1.28 | 1.16 | 1.33
Nc1nc(SCc2ccccc2CCl)c2[nH]cnc2n1 | > 100 | > 100 | 28.8 | 44 | 32.9 | 41.7 | 34.6 | > 100 | 30.1 | 36.5 | 28.2 | 25.1 | 12.5 | 14.5 | 16.3 | 18.9 | 21.4 | 14.3 | 15.7 | 15.6
O=C1/C(=C/c2ccc(Cl)cc2)CCC1CNc1ccc(Cl)cc1 (stereo not drawn) | 19.2 | 45.6 | 44.8 | 28.9 | 32.4 | 31.8 | > 77.3 | 27.5 | 7.29 | 55.1 |  |  |  |  |  |  |  |  |  | 
